From patent US11020394B2, “Compositions and methods for treating inflammatory bowel disease using a combination therapy of small molecule inhibitors of C—C chemokine receptor type 9 (CCR9) and anti-α4β7 integrin blocking antibodies” (ChemoCentryx, Inc., priority 2014, dated 2021)

Test system: in vitro differentiated human CCR9+α4β7+ T cells
Assay: Static binding (adhesion) assay of in vitro differentiated T cells on MAdCAM-1-Fc coated plates
Assay type: cell-based
Details: 1 μM CCX507, with hCCL25, MAdCAM-1-Fc coated plates, FIG. 1B
Protocol: Adhesion assays were performed as follows. Human lymphocytes were isolated from total PBMCs and activated with α-CD3ε/α-CD28 (1 μg/mL; R&D Systems) in the presence of 1 μM retinoic acid (Sigma) and 1 ng/mL human IL12 (R&D Systems). In vitro activated T cells were further expanded for 5 days in the presence of 1 μM retinoic acid (RA) and 1 ng/mL human IL12. The expanded cells were stained with an anti CCR9 APC conjugated antibody (Cat. No. 248621; R&D Systems) and a conjugated anti-α4β7 integrin antibody (Act-1). The stained cells were analyzed by flow cytometry. Expression of CCR9 and α4β7 integrin in the expanded T cells was depicted as a 2-parameter scatterplot in FIG. 1A.
In vitro activated T cells were added to 96-well plate coated overnight with 0.3 μg/mL MAdCAM-1-Fc fusion protein (R&D Systems) in the presence of the following conditions: DMSO only, 500 ng human CCL25 (hCCL25; a CCR9 ligand) only, 1 μM CCX507 (a CCR9 small molecule inhibitor) only, or 500 ng hCCL25 and 1 μM CCX507. Adherent cells were quantified using CyQUANT® Cell Proliferation Assays (Thermo Fisher).

Cc1cc(NS(=O)(=O)c2ccc(C(C)(C)C)c(F)c2)n(-c2ccc(N)c3ncccc23)n1 [CCX507]
binding of RA-differentiated human T cells to MAdCAM-1 (adherent cells quantified using CyQUANT, RFU): limits the binding of RA-differentiated human T cells to MAdCAM-1
